Legend:
winter wheat (TRZAW) [1] = test: Test 23 growth chamber, postemergence; format: in vivo, Triticum aestivum; details: 21 DAA
Description: (§1) A test was conducted to evaluate the effects on winter barley (HORVW, Hordeum vulgare L.), winter wheat (TRZAW, Triticum aestivum L.), and several weed species of mixtures of Compound 2 with the commercial herbicides (2,4-dichlorophenoxy)acetic acid (2,4-D) and (4-chloro-2-methylphenoxy)acetic acid (MCPA), auxin mimics. […] Plants were treated postemergence at the 2-4 leaf growth stage, and each treatment was replicated three times. […] Plants were watered as needed. […] Results are means of the three replicates.

kochia (KCHSC) = test: Test 21 growth chamber, postemergence; format: in vivo, Kochia scoparia; details: 19 DAA
Description: as §1, with “species,” for “species”, “herbicide” for “herbicides”, “(2,4-D), an” for “(2,4-D) and (4-chloro-2-methylphenoxy)acetic acid (MCPA),”, “mimic.” for “mimics.”, “one time.” for “three times.”, “from single” for “means of the three”

winter wheat (TRZAW) [2] = test: Test 21 growth chamber, postemergence; format: in vivo, Triticum aestivum; details: 19 DAA
Description: as §1, with “species,” for “species”, “herbicide” for “herbicides”, “(2,4-D), an” for “(2,4-D) and (4-chloro-2-methylphenoxy)acetic acid (MCPA),”, “mimic.” for “mimics.”, “one time.” for “three times.”, “from single” for “means of the three”

redroot pigweed (AMARE) = test: Test 23 growth chamber, postemergence; format: in vivo, Amaranthus retroflexus; details: 21 DAA
Description: as §1

arrowleaf sida (SIDRH) = test: Test 12 field trial, preemergence; format: in vivo, Sida rhombifolia; design: scale not given here; details: Cpd 2 or Cpd 1 62 g a.i./ha, Diuron 2000 g a.i./ha
Description: (§2) In early-mid spring season, corn seeds (hybrid ‘Pioneer 3041’) were planted 5 cm deep and sugarcane nodes (variety RB-72.454) were planted 10 cm deep in separate plots in a clay soil having 2.6% organic matter and a pH of 5.6. Plots were 24 m long by 1.5 m wide with rows spaced 80 cm (corn) or 140 cm (sugarcane) apart. Corn seeds were spaced 15 cm apart and sugarcane nodes were spaced 10 cm apart within the rows. At the same time, weed seeds were broadcast over the surface of separate plots without a crop, one weed species per plot. The weed plots were rotary tilled to incorporate the weed seeds to a variety of depths. The field was managed using conventional tillage practices.

wild poinsettia (EPHHL) = test: Test 12 field trial, preemergence; format: in vivo, Euphorbia heterophylla; design: scale not given here; details: Cpd 2 or Cpd 1 62 g a.i./ha, Diuron 2000 g a.i./ha
Description: as §2

giant foxtail (SETFA) = test: Test 14 field trial, preemergence, growth as percent of control; format: in vivo, Setaria faberi
Description: Corn seeds (hybrid ‘Pioneer 31G96 RR’) were planted in mid spring season, 3.8 cm deep in a clay loam soil having 2% organic matter and a pH of 6.6. Plots were 6.1 m long by 3.0 m wide with rows spaced 76 cm apart. Seeds were spaced 15 cm apart within the rows. The field was managed using conventional tillage practices. […] Yellow nutsedge was only evaluated 19 and 28 days after application, and ivyleaf morningglory could only be evaluated 28 days after application. […] Results are the means of the three replicates. This growth inhibition data was converted to results in the form of “plant growth as a percent of control plant growth” using the calculation “100 minus growth inhibition”. […] For “growth as a percent of control” data, Colby's Equation calculates the expected additive effect of herbicidal mixtures having two active ingredients as follows:
Ga+b=GaGb/100 • wherein Ga+b is the growth as a percent of control of plants treated with the mixture expected from additive contribution of the individual components, • Ga is the observed growth as a percent of control of plants treated with the first active ingredient at the same use rate as in the mixture, and • Gb is the observed growth as a percent of control of plants treated with the second active ingredient at the same use rate as in the mixture. For mixtures having three active ingredients, Colby's Equation to calculate the expected additive effect of herbicidal mixtures is as follows:
Ga+b+c=GaGbGc/10,000 • wherein Ga and Gb are as defined above and • Ga+b+c is the growth as a percent of control of plants treated with the mixture expected from additive contribution of the individual components, and • Gc is the observed growth as a percent of control of plants treated with the third active ingredient at the same use rate as in the mixture. When these two forms of Colby's Equation are used, if the observed effects on weeds are less than the expected values, the mixture is synergistic.

[3] = tested on: smallflower buttercup (RANAB); test: Test 9 field trial, emerged weeds before corn planting; format: in vivo, Ranunculus abortivus; details: g a.i./ha: Cpd 2 100, Glyphosate 1540, Paraquat 1150
Description: Corn seeds (hybrid ‘Pioneer 34M91 RR’) were planted in mid spring season, about 3.8 cm deep in a silty clay loam soil having a pH of 6.7. Plots were 9.1 m long by 3.0 m. The field was managed using no-till practices. […] Compound 2 and paraquat treatments, alone and in combination, also included a surfactant. Glyphosate, alone and with Compound 2, included ammonium sulfate in the treatment mixture. […] The effects on the weeds in the treated plots and untreated control plots were recorded 7, 14, 23, 30 and 57 days after application. Most of the weed species could not be evaluated at every timing. Corn response was only evaluated 57 days after application. […] Results are the means of the three replicates.

[4] = tested on: common lambsquarters (CHEAL); test: Test 3 field trial, emerged weeds before corn planting; format: in vivo, Chenopodium album; details: 68 DAA; Cpd 2 100, glyphosate 1540, paraquat 1150 g a.i./ha, alone or combined
Description: Corn seeds (hybrid ‘Pioneer 33J56’) were planted in early spring season, 3.8 cm deep in a silt loam soil having 2.4% organic matter and a pH of 6. Plots were 6.1 m long by 2.7 m wide with rows spaced 91.4 cm apart. The field was managed using no-till practices. […] Compound 2 and paraquat treatments, alone and in combination, also included a surfactant. Glyphosate, alone and with Compound 2, included ammonium sulfate in the treatment mixture. […] The effects on the weeds in the treated plots and untreated control plots were recorded 30, 42, 46 and 68 days after application. Most of the weed species could not be evaluated at every timing. Corn response was not evaluated because the growth was highly variable depending on the efficacy of the weed control treatments. […] Results are the means of the three replicates.

[5] = 2,4-D or MCPA alone 250 g a.i./ha

Row | Structure (SMILES) | SIDRH Obs (arrowleaf sida (SIDRH); 15 DAA) | SIDRH Obs (arrowleaf sida (SIDRH); 29 DAA) | SIDRH Obs (arrowleaf sida (SIDRH); 48 DAA) | SIDRH Obs (arrowleaf sida (SIDRH); 61 DAA) | EPHHL Obs (wild poinsettia (EPHHL); 15 DAA) | EPHHL Obs (wild poinsettia (EPHHL); 29 DAA) | EPHHL Obs (wild poinsettia (EPHHL); 48 DAA) | EPHHL Obs (wild poinsettia (EPHHL); 61 DAA) | RANAB Obs ([3]; 7 DAA) | RANAB Obs ([3]; 14 DAA) | RANAB Obs ([3]; 23 DAA) | RANAB Obs ([3]; 30 DAA) | CHEAL Obs [4] | also measured
1 | O=C(O)COc1ccc(Cl)cc1Cl [2,4-D, (2,4-dichlorophenoxy)acetic acid] | – | – | – | – | – | – | – | – | – | – | – | – | – | Postemergence TRZAW Obs (winter wheat (TRZAW) [1]; [5]): 20; Postemergence KCHSC Obs (kochia (KCHSC); 2,4-D alone 125 g a.i./ha): 45; Postemergence KCHSC Obs (kochia (KCHSC); 2,4-D alone 250 g a.i./ha): 45; Postemergence TRZAW Obs (winter wheat (TRZAW) [2]; 2,4-D alone 125 g a.i./ha): 35; Postemergence TRZAW Obs (winter wheat (TRZAW) [2]; 2,4-D alone 250 g a.i./ha): 40; Postemergence AMARE Obs (redroot pigweed (AMARE); [5]): 67
2 | Nc1nc(C2CC2)nc(C(=O)O)c1Cl [Compound 1, 6-amino-5-chloro-2-cyclopropyl-4-pyrimidinecarboxylic acid] | 60 | 95 | 100 | 95 | 40 | 70 | 50 | 40 | – | – | – | – | – | –
3 | COC(=O)c1nc(C2CC2)nc(N)c1Cl [Compound 2, methyl 6-amino-5-chloro-2-cyclopropyl-4-pyrimidinecarboxylate] | 40 | 90 | 70 | 60 | 40 | 60 | 40 | 40 | 45% | 40% | 60% | 65% | 100% | Obs growth % of control (giant foxtail (SETFA); 19 DAA, 75 g a.i./ha): 58%; Obs growth % of control (giant foxtail (SETFA); 19 DAA, 100 g a.i./ha): 48%; Obs growth % of control (giant foxtail (SETFA); 28 DAA, 75 g a.i./ha): 68%; Obs growth % of control (giant foxtail (SETFA); 28 DAA, 100 g a.i./ha): 67%; Obs growth % of control (giant foxtail (SETFA); 56 DAA, 75 g a.i./ha): 92%; Obs growth % of control (giant foxtail (SETFA); 56 DAA, 100 g a.i./ha): 97%; Postemergence TRZAW Obs (winter wheat (TRZAW) [1]; Cpd 2 alone 4 g a.i./ha): 35; Postemergence TRZAW Obs (winter wheat (TRZAW) [1]; Cpd 2 alone 8 g a.i./ha): 38; Postemergence TRZAW Obs (winter wheat (TRZAW) [1]; Cpd 2 alone 16 g a.i./ha): 43; Postemergence KCHSC Obs (kochia (KCHSC); Cpd 2 alone 16 g a.i./ha): 65; Postemergence TRZAW Obs (winter wheat (TRZAW) [2]; Cpd 2 alone 16 g a.i./ha): 50; Postemergence AMARE Obs (redroot pigweed (AMARE); Cpd 2 alone 4 g a.i./ha): 43; Postemergence AMARE Obs (redroot pigweed (AMARE); Cpd 2 alone 8 g a.i./ha): 62; Postemergence AMARE Obs (redroot pigweed (AMARE); Cpd 2 alone 16 g a.i./ha): 68
4 | O=C(O)CNCP(=O)(O)O [Glyphosate] | – | – | – | – | – | – | – | – | 50% | 80% | 95% | 100% | 0% | –
5 | CCc1cccc(C)c1N(C(=O)CCl)[C@@H](C)COC [S-Metolachlor, S-metolachlor, reference compound] | – | – | – | – | – | – | – | – | – | – | – | – | – | Obs growth % of control (giant foxtail (SETFA); 19 DAA, 1870 g a.i./ha): 7%; Obs growth % of control (giant foxtail (SETFA); 28 DAA, 1870 g a.i./ha): 5%; Obs growth % of control (giant foxtail (SETFA); 56 DAA, 1870 g a.i./ha): 1%

— US20100285959A1, “HERBICIDAL MIXTURES” (priority 2006, published 2010)
